Experimental data: patent publication US20080194585A1, “Fungicidal Pyrazine Derivatives” (priority 2005, published 2008)
Marks after values point to notes of the source that are not given here.

What was measured:
Plasmopara viticola = experiment: Test D: grape downy mildew, spray after inoculation of grape seedlings; type: in vivo
Description: Upon removal, disease ratings were made. […] A dash (-) indicates no test results.

Phytophthora infestans = experiment: whole plant or invertebrate; type: in vivo
Septoria tritici = experiment: Test J: wheat leaf blotch, preventive spray on wheat seedlings; type: in vivo
Description: A dash (-) indicates no test results.

fusarium graminearium = experiment: Test I: wheat head scab, preventive spray on wheat seedlings
Description: (the causal agent of wheat head scab) and incubated in a saturated atmosphere at 20° C. for 72 h, and then moved to a growth chamber at 22° C. for 5 days, after which disease ratings were made.

[1] = test system: Puccinia recondita f. sp. tritici; experiment: Test K: wheat leaf rust, preventive spray on wheat seedlings
Botrytis cinerea = experiment: Test E: tomato botrytis, preventive spray on tomato seedlings
Septoria nodorum = experiment: Test H: wheat glum blotch, preventive spray on wheat seedlings
Description: (the causal agent of wheat glum blotch) and incubated in a saturated atmosphere at 20° C. for 48 h, and then moved to a growth chamber at 22° C. for 5 days, after which disease ratings were made.

[2] = test system: Erysiphe graminis f. sp. tritici; experiment: Test L: wheat powdery mildew, preventive spray on wheat seedlings
Pythium aphanidermatum = experiment: Test A: bluegrass pythium blight, preventive spray on bluegrass seedlings
Rhizoctonia oryzae = experiment: Test G: turf brown patch, preventive spray on creeping bent grass seedlings
Description: (the causal agent of turf brown patch) and incubated in a saturated atmosphere at 27° C. for 24 h, and then moved to a growth chamber at 27° C. for 5 days, after which disease ratings were made.

[3] = test system: Colletotrichum orbiculare; experiment: Test B: cucumber Colletotrichum anthracnose, preventive spray on cucumber seedlings
Sclerotinia sclerotiorum = experiment: Test C: cucumber white mold, preventive spray on cucumber seedlings
[4] = Puccinia recondita, in Triticum aestivum, 192 h, read-out: Test K disease control rating
[5] = Botrytis cinerea, in Solanum lycopersicum, topical, 72 h, read-out: Test E disease control rating
[6] = Pythium aphanidermatum, 120 h, read-out: Test A disease control rating
[7] = 40 ppm (marked *), 100 = 100% disease control, 0 = no control

CCC(C)Cn1c(-c2ccc(F)cc2F)c(C)nc(C#N)c1=N (centres unmarked) [Compound 426, 5-(2,4-Difluorophenyl)-3,4-dihydro-3-imino-6-methyl-4-(2-methylbutyl)pyrazinecarbonitrile]
pest or weed control at 200 ppm (Plasmopara viticola; Plasmopara viticola, 168 h, 200 ppm, 100 = 100% disease control, 0 = no control relative to controls, read-out: Test D disease control rating): 0%
pest or weed control at 200 ppm (Phytophthora infestans; Phytophthora infestans, in Solanum lycopersicum, topical, 144 h, read-out: Test F disease control rating): 0%
pest or weed control at 200 ppm (Septoria tritici; Zymoseptoria tritici, 528 h, 200 ppm, 100 = 100% disease control, 0 = no control relative to controls, read-out: Test J disease control rating): 0%
melting point: 73 to 77 °C
pest or weed control at 200 ppm (fusarium graminearium; Fusarium, in Triticum aestivum, topical, 192 h, read-out: Test I disease control rating, 200 ppm, 100 = 100% disease control, 0 = no control relative to controls): 0%
pest or weed control at 200 ppm [1, 4]: 0%
pest or weed control at 200 ppm (Botrytis cinerea; [5]): 0%
pest or weed control at 200 ppm (Septoria nodorum; Parastagonospora nodorum, in Triticum aestivum, topical, 168 h, read-out: Test H disease control rating, 200 ppm, 100 = 100% disease control, 0 = no control relative to controls): 0%
pest or weed control at 200 ppm ([2]; Blumeria graminis, in Triticum aestivum, 168 h, read-out: Test L disease control rating, 200 ppm, 100 = 100% disease control, 0 = no control relative to controls): 80%
pest or weed control at 200 ppm (Pythium aphanidermatum; [6]): 82%
pest or weed control at 200 ppm (Rhizoctonia oryzae; Waitea circinata, in Agrostis stolonifera, topical, 144 h, read-out: Test G disease control rating, 200 ppm, 100 = 100% disease control, 0 = no control relative to controls): 0%
pest or weed control at 200 ppm ([3]; Colletotrichum orbiculare, in Cucumis sativus, 144 h, read-out: Test B disease control rating, 200 ppm, 100 = 100% disease control, 0 = no control relative to controls): 0%

O=c1c(-n2cccn2)nc(Cl)c(-c2c(F)ccc(F)c2F)n1-c1ccccc1 [Compound 357, 5-Chloro-1-phenyl-3-(1H-pyrazol-1-yl)-6-(2,3,6-trifluorophenyl)-2(1H)-pyrazinone]
pest or weed control at 40 ppm (Plasmopara viticola; Plasmopara viticola, 168 h, 40 ppm (marked *), 100 = 100% disease control, 0 = no control, read-out: Test D disease control rating): 0%
pest or weed control at 40 ppm (Septoria tritici; Zymoseptoria tritici, 528 h, 40 ppm (marked *), 100 = 100% disease control, 0 = no control, read-out: Test J disease control rating): 91%
melting point: 250 to 260 °C
pest or weed control at 40 ppm (fusarium graminearium; Fusarium, in Triticum aestivum, topical, 192 h, read-out: Test I disease control rating, 40 ppm (marked *), 100 = 100% disease control, 0 = no control): 91%
pest or weed control at 40 ppm [1, 4]: 99%
pest or weed control at 40 ppm (Botrytis cinerea; [5]): 99%
pest or weed control at 40 ppm (Septoria nodorum; Parastagonospora nodorum, in Triticum aestivum, topical, 168 h, read-out: Test H disease control rating, 40 ppm (marked *), 100 = 100% disease control, 0 = no control): 98%
pest or weed control at 40 ppm ([2]; Blumeria graminis, in Triticum aestivum, 168 h, read-out: Test L disease control rating, 40 ppm (marked *), 100 = 100% disease control, 0 = no control): 20%
pest or weed control at 40 ppm (Pythium aphanidermatum; [6]): 0%
pest or weed control at 40 ppm (Rhizoctonia oryzae; Waitea circinata, in Agrostis stolonifera, topical, 144 h, read-out: Test G disease control rating, 40 ppm (marked *), 100 = 100% disease control, 0 = no control): 84%
pest or weed control at 40 ppm ([3]; Colletotrichum orbiculare, in Cucumis sativus, 144 h, read-out: Test B disease control rating, 40 ppm (marked *), 100 = 100% disease control, 0 = no control): 83%

CS(=O)(=O)CCn1c(-c2c(F)cccc2F)c(Cl)nc(-n2cncn2)c1=O [compound 127]
Test D disease control rating (Plasmopara viticola; 40 ppm (*)): 0* %
Test F disease control rating (Phytophthora infestans; 40 ppm (*)): 0* %
Test J disease control rating (Septoria tritici; 200 ppm): 16%
Test I disease control rating (fusarium graminearium; 40 ppm (*)): 0* %
Test K disease control rating ([1]; 40 ppm (*)): 0* %
Test E disease control rating (Botrytis cinerea; 40 ppm (*)): 0* %
Test H disease control rating (Septoria nodorum; 40 ppm (*)): 0* %
Test L disease control rating ([2]; 40 ppm (*)): 0* %
Test C disease control rating (Sclerotinia sclerotiorum; 40 ppm (*)): 0* %
Test A disease control rating (Pythium aphanidermatum; 40 ppm (*)): 0* %
Test G disease control rating (Rhizoctonia oryzae; 40 ppm (*)): 0* %
Test B disease control rating ([3]; 40 ppm (*)): 0* %

CC(C)Cn1c(-c2c(F)cccc2C(F)(F)F)c(Cl)nc(-n2cncn2)c1=O [compound 113]
Test D disease control rating (Plasmopara viticola; 200 ppm): 0%
Test F disease control rating (Phytophthora infestans; 200 ppm): 0%
Test J disease control rating (Septoria tritici; 40 ppm (*)): 2* %
Test I disease control rating (fusarium graminearium; 200 ppm): 98%
Test K disease control rating ([1]; 40 ppm (*)): 0* %
Test E disease control rating (Botrytis cinerea; 40 ppm (*)): 0* %
Test H disease control rating (Septoria nodorum; 40 ppm (*)): 0* %
Test L disease control rating ([2]; 40 ppm (*)): 0* %
Test C disease control rating (Sclerotinia sclerotiorum; 200 ppm): 93%
Test A disease control rating (Pythium aphanidermatum; 200 ppm): 0%
Test G disease control rating (Rhizoctonia oryzae; 40 ppm (*)): 26* %
Test B disease control rating ([3]; 40 ppm (*)): 0* %

N#Cc1nc(Cl)c(-c2c(F)cccc2F)n(Cc2ccc(F)cc2)c1=O [compound 274]
Test D disease control rating (Plasmopara viticola; [7]): 0* %
Test F disease control rating (Phytophthora infestans; [7]): 0* %
Test J disease control rating (Septoria tritici; [7]): 45* %
Test I disease control rating (fusarium graminearium; [7]): 0* %
Test K disease control rating [1, 7]: 91* %
Test E disease control rating (Botrytis cinerea; [7]): 0* %
Test H disease control rating (Septoria nodorum; [7]): 0* %
Test L disease control rating [2, 7]: 71* %
Test C disease control rating (Sclerotinia sclerotiorum; [7]): 0* %
Test A disease control rating (Pythium aphanidermatum; [7]): 0* %
Test G disease control rating (Rhizoctonia oryzae; [7]): 0* %
Test B disease control rating [3, 7]: 0* %

CC(C)Cn1c(-c2cc(F)ccc2F)c(Cl)nc(-n2cccn2)c1=O [compound 56]
Test D disease control rating (Plasmopara viticola; 200 ppm): 29%
Test F disease control rating (Phytophthora infestans; 200 ppm): 0%
Test J disease control rating (Septoria tritici; 40 ppm (*)): 100* %
Test I disease control rating (fusarium graminearium; 200 ppm): 60%
Test K disease control rating ([1]; 200 ppm): 99%
Test E disease control rating (Botrytis cinerea; 200 ppm): 100%
Test H disease control rating (Septoria nodorum; 200 ppm): 100%
Test L disease control rating ([2]; 200 ppm): 99%
Test C disease control rating (Sclerotinia sclerotiorum; 200 ppm): 99%
Test A disease control rating (Pythium aphanidermatum; 200 ppm): 0%
Test G disease control rating (Rhizoctonia oryzae; 200 ppm): 92%
Test B disease control rating ([3]; 200 ppm): 99%

Cc1ccn(-c2nc(Cl)c(-c3c(F)cccc3F)n(-c3ccccc3)c2=O)n1 [compound 278]
Test D disease control rating (Plasmopara viticola; [7]): 31* %
Test F disease control rating (Phytophthora infestans; [7]): 0* %
Test J disease control rating (Septoria tritici; [7]): 100* %
Test I disease control rating (fusarium graminearium; [7]): 0* %
Test K disease control rating [1, 7]: 100* %
Test E disease control rating (Botrytis cinerea; [7]): 100* %
Test H disease control rating (Septoria nodorum; [7]): 100* %
Test L disease control rating [2, 7]: 99* %
Test C disease control rating (Sclerotinia sclerotiorum; [7]): 0* %
Test A disease control rating (Pythium aphanidermatum; [7]): 0* %
Test G disease control rating (Rhizoctonia oryzae; [7]): 92* %
Test B disease control rating [3, 7]: 88* %

CC(C)Cn1c(-c2ccc(C(F)(F)F)cc2F)c(Cl)nc(-n2cncn2)c1=O [compound 117]
Test D disease control rating (Plasmopara viticola; 200 ppm): 0%
Test F disease control rating (Phytophthora infestans; 200 ppm): 0%
Test J disease control rating (Septoria tritici; 40 ppm (*)): 2* %
Test I disease control rating (fusarium graminearium; 200 ppm): 83%
Test K disease control rating ([1]; 40 ppm (*)): 0* %
Test E disease control rating (Botrytis cinerea; 40 ppm (*)): 0* %
Test H disease control rating (Septoria nodorum; 40 ppm (*)): 0* %
Test L disease control rating ([2]; 40 ppm (*)): 0* %
Test C disease control rating (Sclerotinia sclerotiorum; 200 ppm): 0%
Test A disease control rating (Pythium aphanidermatum; 200 ppm): 0%
Test G disease control rating (Rhizoctonia oryzae; 40 ppm (*)): 0* %
Test B disease control rating ([3]; 40 ppm (*)): 0* %

CCC(C)Cn1c(-c2c(F)cccc2F)c(Cl)nc(-n2ccnc2C(C)C)c1=O (centres unmarked) [compound 72]
Test D disease control rating (Plasmopara viticola; 200 ppm): 0%
Test F disease control rating (Phytophthora infestans; 200 ppm): 0%
Test J disease control rating (Septoria tritici; 40 ppm (*)): 74* %
Test I disease control rating (fusarium graminearium; 200 ppm): 0%
Test K disease control rating ([1]; 40 ppm (*)): 61* %
Test E disease control rating (Botrytis cinerea; 40 ppm (*)): 0* %
Test H disease control rating (Septoria nodorum; 40 ppm (*)): 0* %
Test L disease control rating ([2]; 40 ppm (*)): 53* %
Test C disease control rating (Sclerotinia sclerotiorum; 200 ppm): 0%
Test A disease control rating (Pythium aphanidermatum; 200 ppm): 0%
Test G disease control rating (Rhizoctonia oryzae; 40 ppm (*)): 58* %
Test B disease control rating ([3]; 40 ppm (*)): 0* %
